# Experimental data reported in patent US8314215B2, “Mild chemically cleavable linker system” (The Board of Trustees of the Leland Stanford Junior …, priority 2006, dated 2012).
# Experiments:
# Assay in all cases: LC/MS/MS identification of proteins from mouse liver extracts labeled with MTS-I-49
# Assay type in all cases: biochemical
# [1] = biological target: T1, glyceraldehyde-3-phosphate dehydrogenase (Mus musculus, UniProt P16858)
# T1 construct: from tissue; host or cells: mouse liver extract
# Source text: (§1) (1991) Irreversible inhibition of serine proteases by peptide derivatives of (alpha-aminoalkyl)phosphonate diphenyl esters. Biochemistry 30, 485-493). However, it has not been used for any proteomic applications. We used MTS-I-49 to label mouse liver extracts and analyze the labeled sample by both SDS-PAGE (FIG. 5B) and by direct chemical cleavage or on bead digestion.
# (§2) After enrichment on immobilized avidin, each of the three labeled proteomes (FIG. 5b) was divided into two aliquots. One was prepared for LC-MS/MS analysis by “on bead” digestion, while the other was chemically eluted and digested “in solution.” Proteins identified in each tissue lysate are listed with their accession number and theoretical molecular weight (MW). To compare both approaches, the number of identified peptides and percentage of amino acid sequence coverage is listed for each protein.
# (§3) Proteins in the above Table were identified by LC/MS/MS analysis of on bead digested or chemically eluted proteins from mouse liver extracts labeled with MTS-I-49. […] BLAST database searching identified it as liver carboxylesterase 4. A number of additional endogenously biotinylated proteins were identified in the on-bead digested sample.
# carbonmonoxy hemoglobin = system: carbonmonoxy hemoglobin
# Source text: as §1, §2, §3
# [2] = biological target: T2, carbamoyl-phosphate synthase 1 (Mus musculus, UniProt Q8C196)
# T2 construct: from tissue; host or cells: mouse liver extract
# T2 sequence (Q8C196 39-1500): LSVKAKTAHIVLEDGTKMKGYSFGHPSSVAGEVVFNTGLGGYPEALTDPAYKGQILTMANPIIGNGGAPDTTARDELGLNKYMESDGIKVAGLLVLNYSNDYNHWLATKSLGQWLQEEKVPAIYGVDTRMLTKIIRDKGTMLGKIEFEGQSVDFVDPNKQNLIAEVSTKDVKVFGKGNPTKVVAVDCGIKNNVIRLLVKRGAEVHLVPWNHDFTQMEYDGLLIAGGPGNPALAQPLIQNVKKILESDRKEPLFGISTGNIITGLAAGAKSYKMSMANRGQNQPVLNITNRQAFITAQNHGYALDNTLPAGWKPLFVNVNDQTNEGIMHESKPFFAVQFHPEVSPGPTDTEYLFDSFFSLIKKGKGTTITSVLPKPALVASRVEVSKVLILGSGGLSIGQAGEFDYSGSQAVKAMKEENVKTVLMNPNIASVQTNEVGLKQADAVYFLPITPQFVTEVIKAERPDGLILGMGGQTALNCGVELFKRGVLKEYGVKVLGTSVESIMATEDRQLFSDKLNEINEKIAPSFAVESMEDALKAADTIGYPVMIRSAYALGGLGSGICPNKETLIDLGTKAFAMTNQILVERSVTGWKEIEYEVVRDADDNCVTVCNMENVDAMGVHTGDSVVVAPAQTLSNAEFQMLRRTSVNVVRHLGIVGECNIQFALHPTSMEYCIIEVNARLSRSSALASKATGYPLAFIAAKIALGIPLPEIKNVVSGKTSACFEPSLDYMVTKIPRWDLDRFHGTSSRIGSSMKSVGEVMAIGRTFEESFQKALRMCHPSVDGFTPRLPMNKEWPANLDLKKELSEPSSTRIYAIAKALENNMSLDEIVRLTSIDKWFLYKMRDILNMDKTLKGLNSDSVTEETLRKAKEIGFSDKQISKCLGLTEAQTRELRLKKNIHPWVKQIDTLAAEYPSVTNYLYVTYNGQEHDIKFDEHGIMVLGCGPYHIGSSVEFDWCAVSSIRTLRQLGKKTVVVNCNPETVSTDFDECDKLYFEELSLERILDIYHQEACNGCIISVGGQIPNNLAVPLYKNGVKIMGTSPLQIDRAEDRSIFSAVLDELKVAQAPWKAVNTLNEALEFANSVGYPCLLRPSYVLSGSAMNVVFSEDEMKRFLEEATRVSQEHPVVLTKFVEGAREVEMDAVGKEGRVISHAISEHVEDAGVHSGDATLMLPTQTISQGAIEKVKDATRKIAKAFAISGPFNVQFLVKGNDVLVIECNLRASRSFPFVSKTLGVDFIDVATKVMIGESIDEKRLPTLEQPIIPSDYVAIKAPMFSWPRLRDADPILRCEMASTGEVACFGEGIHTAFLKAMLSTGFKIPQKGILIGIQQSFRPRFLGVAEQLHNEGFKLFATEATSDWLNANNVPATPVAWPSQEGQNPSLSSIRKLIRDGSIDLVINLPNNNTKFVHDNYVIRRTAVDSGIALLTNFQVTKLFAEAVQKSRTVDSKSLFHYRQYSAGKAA
# Source text: as §1, §2, §3
# [3] = biological target: T3, acetyl-Coenzyme acyltransferase 2 (Mus musculus, UniProt Q8BWT1)
# T3 construct: from tissue; host or cells: mouse liver extract
# T3 sequence (Q8BWT1 1-397): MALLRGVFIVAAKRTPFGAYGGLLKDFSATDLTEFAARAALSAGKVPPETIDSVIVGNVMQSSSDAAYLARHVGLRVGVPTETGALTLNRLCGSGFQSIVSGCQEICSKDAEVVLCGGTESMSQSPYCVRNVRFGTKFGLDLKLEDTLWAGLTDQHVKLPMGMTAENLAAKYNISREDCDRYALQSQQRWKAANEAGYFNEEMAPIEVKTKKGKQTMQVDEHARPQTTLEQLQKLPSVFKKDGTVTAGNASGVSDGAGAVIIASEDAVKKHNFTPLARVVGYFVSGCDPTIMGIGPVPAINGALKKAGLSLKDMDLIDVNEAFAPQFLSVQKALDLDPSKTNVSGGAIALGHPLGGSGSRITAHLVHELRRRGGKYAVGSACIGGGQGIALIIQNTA
# Source text: as §1, §2, §3
# albumin 1 = biological target: T4, albumin 1 (Mus musculus, UniProt P07724)
# T4 construct: from tissue; host or cells: mouse liver extract
# Source text: as §1, §2, §3
# [4] = system: glutathione-S-transferase
# Source text: as §1, §2, §3
# [5] = chemically eluted, digested in solution
# T4 sequence (P07724 25-608): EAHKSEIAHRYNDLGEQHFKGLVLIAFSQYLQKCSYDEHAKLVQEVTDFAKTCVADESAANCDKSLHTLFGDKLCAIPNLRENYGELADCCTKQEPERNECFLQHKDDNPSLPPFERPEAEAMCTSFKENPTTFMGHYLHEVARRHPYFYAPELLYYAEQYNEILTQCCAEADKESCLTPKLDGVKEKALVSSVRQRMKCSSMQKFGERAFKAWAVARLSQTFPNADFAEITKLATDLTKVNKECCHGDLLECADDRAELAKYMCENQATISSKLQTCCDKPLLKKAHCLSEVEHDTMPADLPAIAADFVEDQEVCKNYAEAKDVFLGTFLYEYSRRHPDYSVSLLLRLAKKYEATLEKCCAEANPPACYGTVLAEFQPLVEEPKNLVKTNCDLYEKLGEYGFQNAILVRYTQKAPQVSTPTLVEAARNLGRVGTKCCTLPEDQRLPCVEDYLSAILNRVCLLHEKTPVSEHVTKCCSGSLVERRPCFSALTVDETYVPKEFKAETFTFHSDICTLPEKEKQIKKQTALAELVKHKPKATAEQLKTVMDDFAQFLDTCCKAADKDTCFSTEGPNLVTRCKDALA
# T1 sequence (P16858 whole entry): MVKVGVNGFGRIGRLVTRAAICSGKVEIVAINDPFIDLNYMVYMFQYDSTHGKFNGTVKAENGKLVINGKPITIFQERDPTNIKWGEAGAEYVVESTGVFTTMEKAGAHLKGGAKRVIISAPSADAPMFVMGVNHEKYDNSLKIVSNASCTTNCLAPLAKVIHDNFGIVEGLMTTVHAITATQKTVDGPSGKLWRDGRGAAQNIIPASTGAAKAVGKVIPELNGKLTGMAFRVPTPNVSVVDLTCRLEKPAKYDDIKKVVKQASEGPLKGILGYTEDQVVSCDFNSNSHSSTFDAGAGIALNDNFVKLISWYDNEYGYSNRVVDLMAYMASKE
structure (smiles),measurement,setting,value
C[C@H](NC(=O)c1ccc(N=Nc2cc(CCNC(=O)CCCC[C@@H]3SC[C@@H]4NC(=O)N[C@@H]43)ccc2O)cc1)C(=O)N[C@@H](C)C(=O)NC(Cc1ccccc1)P(=O)(Oc1ccccc1)Oc1ccccc1 (some centres unmarked) [MTS-I-49],"Chemical Cleavage, number of identified peptides",[1]; [5],0
same,"On Bead Digestion, amino acid sequence coverage",[1]; on bead digestion,10%
same,"On Bead Digestion, number of identified peptides",[1]; on bead digestion,2
same,"Chemical Cleavage, number of identified peptides",carbonmonoxy hemoglobin; [5],0
same,"On Bead Digestion, amino acid sequence coverage",carbonmonoxy hemoglobin; on bead digestion,68%
same,"On Bead Digestion, number of identified peptides",carbonmonoxy hemoglobin; on bead digestion,7
same,"Chemical Cleavage, number of identified peptides",[2]; [5],0
same,"On Bead Digestion, amino acid sequence coverage",[2]; on bead digestion,2 (2%)
same,"On Bead Digestion, number of identified peptides",[2]; on bead digestion,2 (2%)
same,"Chemical Cleavage, amino acid sequence coverage",[3]; [5],15%
same,"Chemical Cleavage, number of identified peptides",[3]; [5],2
same,"On Bead Digestion, amino acid sequence coverage",[3]; on bead digestion,26%
same,"On Bead Digestion, number of identified peptides",[3]; on bead digestion,5
same,"Chemical Cleavage, number of identified peptides",albumin 1; [5],0
same,"On Bead Digestion, amino acid sequence coverage",albumin 1; on bead digestion,6%
same,"On Bead Digestion, number of identified peptides",albumin 1; on bead digestion,2
same,"Chemical Cleavage, amino acid sequence coverage",[4]; [5],12%
same,"Chemical Cleavage, number of identified peptides",[4]; [5],2
same,"On Bead Digestion, amino acid sequence coverage",[4]; on bead digestion,44%
same,"On Bead Digestion, number of identified peptides",[4]; on bead digestion,8
